Assay results taken from patent publication US4769377A, “Adenosine receptor antagonists” (priority 1986, dated 1988).

molecular target: T1, adenosine A1 receptors (Bos taurus, UniProt P28190); assay: inhibition of [^3 H]CHA binding to A1 adenosine receptors in bovine brain membranes; settings: not given;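 further: Filter-bound radioactivity read by liquid scintillation counting, with dose-inhibition curves built from 4–8 test concentrations, each run in triplicate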
T1 sequence (P28190 1-326): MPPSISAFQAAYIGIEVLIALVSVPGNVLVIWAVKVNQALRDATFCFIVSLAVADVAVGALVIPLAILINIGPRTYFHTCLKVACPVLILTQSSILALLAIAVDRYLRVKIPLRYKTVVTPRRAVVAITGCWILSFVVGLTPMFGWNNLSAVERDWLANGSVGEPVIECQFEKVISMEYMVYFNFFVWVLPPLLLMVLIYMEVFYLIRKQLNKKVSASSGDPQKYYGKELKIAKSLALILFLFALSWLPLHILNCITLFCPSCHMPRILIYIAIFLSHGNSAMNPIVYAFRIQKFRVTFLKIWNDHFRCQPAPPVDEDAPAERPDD

| SMILES | IC50 [nM] | Ki [nM] |
| --- | --- | --- |
| Cc1ccc(-c2nc3c([nH]2)c(=O)n(C)c(=O)n3C)s1 [8-(5-methyl-2-thienyl)T] | 5 |  |
| Cn1c(=O)c2[nH]c(-c3ccccc3O)nc2n(C)c1=O [8-(o-hydroxyphenyl)T] |  | 4.8 |
| CCCn1c(=O)c2nc[nH]c2n(CCC)c1=O [B80, 1,3-dipropylxanthine] | 200 | 100 |
| Cc1ccccc1-c1nc2c([nH]1)c(=O)n(C)c(=O)n2C [8-(o-methylphenyl)T] | 6 |  |
| Nc1ncnc2nc[nH]c12 [adenine] | 800000 |  |
| Cn1c(=O)c2[nH]c(-c3ccc(Br)cc3)nc2n(C)c1=O [8-(p-bromophenyl)T] | 0.8 | 0.34 |
| Cn1c(=O)c2nc(-c3ccccc3N)[nH]c2n(C)c1=O [B87, 8-(o-aminophenyl)theophylline] | 5 | 2.3 |
| Cn1c(=O)c2[nH]c(-c3ccc(N)cc3)nc2n(C)c1=O [B211, 8-(p-aminophenyl)theophylline] | 1.7 | 0.69 |
| Cn1c(=O)c2[nH]c(-c3ccc(O)cc3)nc2n(C)c1=O [8-(p-hydroxyphenyl)T] |  | 2 |
| Cn1c(=O)c2[nH]c(-c3c[nH]c4ccccc34)nc2n(C)c1=O [8-(3-indolyl)T] | 18 |  |
| Cn1c(=O)c2[nH]c(-c3cccc(C(=O)O)c3)nc2n(C)c1=O [8-(m-carboxyphenyl)T] |  | 540 |
| Cn1cccc1-c1nc2c([nH]1)c(=O)n(C)c(=O)n2C [8-(N--methyl-2-pyrrolyl)T] | 20 |  |
| Cn1c(=O)c2[nH]c(-c3ccc([N+](=O)[O-])cc3)nc2n(C)c1=O [8-(p-nitrophenyl)T] |  | 4 |
| Cn1c(=O)c2nc(-c3cccs3)[nH]c2n(C)c1=O [8-(2-thienyl)T] | 5 |  |
| Cn1c(=O)c2[nH]c(-c3ccccn3)nc2n(C)c1=O [8-(2-pyridyl)T] | 100 |  |
| Cn1c(=O)c2[nH]c(Cc3ccccc3)nc2n(C)c1=O [8-benzylT] | 1500 |  |
| Cn1c(=O)c2[nH]c(CC3CCCC3)nc2n(C)c1=O [8-cyclopentylmethylT] | 30 |  |
| Cn1c(=O)c2[nH]c(-c3ccccc3C(=O)O)nc2n(C)c1=O [8-(o-carboxyphenyl)T] |  | 21000 |
| Cn1c(=O)c2[nH]c(-c3cccc(Br)c3)nc2n(C)c1=O [8-(m-bromophenyl)T] |  | 4 |
| Cn1c(=O)c2nc(C3CCCCC3)[nH]c2n(C)c1=O [8-cyclohexylT] | 3 |  |
| Cn1cnc2c(N)ncnc21 [9-methyladenine] | 35000 |  |
| C=CCn1c(=O)c2nc[nH]c2n(CC=C)c1=O [1,3-diallylX] | 4000 |  |
| Cn1c(=O)c2[nH]c(-c3ccc(S(=O)(=O)O)cc3)nc2n(C)c1=O [8-(p-sulfo-phenyl)T] | 500 |  |

| SMILES | IC50 [nM] | Ki [nM] |
| --- | --- | --- |
| Cn1c(=O)c2c(ncn2CCCl)n(C)c1=O [7-(2-chloroethyl)T] | 5000 |  |
| Cn1c(=O)c2c(ncn2CCO)n(C)c1=O [7-(2-hydroxyethyl)T] | 100000 |  |
| CCCn1c(=O)c2[nH]c(-c3ccccc3)nc2n(CCC)c1=O [B255, 1,3-Dipropyl-8-Phenylxanthine] | 0.3 | 0.12 |
| CCCn1c(=O)n(CC)c(=O)c2scnc21 [1-ethyl-3-propyl-7-thiaxanthine] | 8000 |  |
| Cn1c(=O)c2[nH]c(-c3ccco3)nc2n(C)c1=O [8-(2-furyl)T] | 18 |  |
| Cn1c(=O)c2[nH]c(-c3ccccc3[N+](=O)[O-])nc2n(C)c1=O [8-(o-nitrophenyl)T] |  | 49 |
| Cn1c(=O)c2[nH]c(-c3cccnc3)nc2n(C)c1=O [8-(3-pyridyl)T] | 50 |  |
| Cn1c(=O)c2c(ncn2CC(O)CO)n(C)c1=O (centres unmarked) [7-(2,3-dihydroxypropyl)T] | 800000 |  |
| Cn1c(=O)c2[nH]c(-c3ccccc3F)nc2n(C)c1=O [8-(o-fluorophenyl)T] | 12 |  |
| Cn1c(=O)c2[nH]c(-c3ccc(Br)o3)nc2n(C)c1=O [8-(5-bromo-2-furyl)T] | 50 |  |
| Cn1c(=O)c2[nH]c(-c3ccc4ccccc4c3)nc2n(C)c1=O [8-(2-naphthyl)T] | 5 |  |
| Cn1c(=O)c2[nH]c(-c3cccc(O)c3)nc2n(C)c1=O [8-(m-hydroxyphenyl)T] |  | 3.1 |
| COc1ccc(-c2nc3c([nH]2)c(=O)n(C)c(=O)n3C)cc1OC [8-(3,4-dimethoxyphenyl)T] | 20 |  |
| Cn1c(=O)[nH]c(=O)c2[nH]cnc21 [3-methylX] | 150000 |  |
| Cn1cnc2c1c(=O)[nH]c(=O)n2C [3,7-Dimethyl (theobromine), theobromine] |  | 68 |
| Cn1c(=O)c2c(ncn2C)n(C)c1=O [caffeine] | 20000 | 11000 |
| CCCc1nc2c([nH]1)c(=O)n(C)c(=O)n2C [8-(n-propyl)T] | 100 |  |
| Cn1c(=O)c2nc3ccccc3nc2n(C)c1=O [1,3-dimethylalloxazine] | 25000 |  |
| Cn1c(=O)c2[nH]c(C3CCCC3)nc2n(C)c1=O [8-cyclopentylT] | 2 |  |
| O=c1nc2[nH]c3ccccc3nc-2c(=O)[nH]1 [alloxazine] | 1500 |  |
| O=c1[nH]c(=O)c2[nH]cnc2[nH]1 [xanthine] | 200000 | 99000 |
| CCn1c(=O)c2nc[nH]c2n(CC)c1=O [1,3-diethylX] | 3000 | 1400 |

same assay, conditions: Table I; vs [^3 H]-cyclohexyladenosine, bovine brain

| SMILES | IC50 [nM] |
| --- | --- |
| Cn1c(=O)c2[nH]c(-c3ccc(Cl)cc3)nc2n(C)c1=O [B70, 8-(p-chlorophenyl)theophylline] | 0.8 |

same assay, conditions: Table II; vs [^3 H-CHA] in bovine brain

| SMILES | IC50 [nM] |
| --- | --- |
| Cn1c(=O)c2[nH]c(-c3cccc4ccccc34)nc2n(C)c1=O [8-(1-naphthyl)T] | 80 |
| C=CCn1c(=O)c2[nH]c(-c3ccccc3)nc2n(C)c1=O [1-allyl-3-methyl-8-phenylX] | 4 |
| Cn1c(=O)c2[nH]c(-c3ccccc3O)nc2n(C)c1=O [8-(o-hydroxyphenyl)T] | 10 |
| C=CCn1c(=O)c2[nH]c(-c3ccc(C)cc3N)nc2n(C)c1=O [1-allyl-3-methyl-8-(2-amino-4-methylphenyl)X] | 7 |
| Cn1c(=O)c2[nH]c(-c3ccc(F)cc3)nc2n(C)c1=O [8-(p-fluorophenyl)T] | 3.5 |
| Cn1c(=O)c2[nH]c(-c3ccc(Cl)c(Cl)c3)nc2n(C)c1=O [8-(3,4-dichlorophenyl)T] | 5 |
| CSc1ccc(-c2nc3c([nH]2)c(=O)n(C)c(=O)n3C)cc1 [8-(p-methylthiophenyl)T] | 2 |
| Cn1c(=O)c2[nH]c(-[c-]3cccc3)nc2n(C)c1=O.[Fe+2].c1cc[cH-]c1 [8-ferrocenylT] | 20 |
| Cn1c(=O)c2[nH]c(-c3ccc(O)cc3)nc2n(C)c1=O [8-(p-hydroxyphenyl)T] | 2 |
| Cn1c(=O)c2[nH]c(-c3cccc(C(=O)O)c3)nc2n(C)c1=O [8-(m-carboxyphenyl)T] | 1000 |
| Cn1c(=O)c2[nH]c(-c3ccc([N+](=O)[O-])cc3)nc2n(C)c1=O [8-(p-nitrophenyl)T] | 8 |
| Cc1cc(O)cc(C)c1-c1nc2c([nH]1)c(=O)n(C)c(=O)n2C [8-(2,6-dimethyl-4-hydroxyphenyl)T] | 30 |
| Cn1c(=O)c2[nH]c(-c3ccccc3C(=O)O)nc2n(C)c1=O [8-(o-carboxyphenyl)T] | 2500 |
| COc1ccc(-c2nc3c([nH]2)c(=O)n(C)c(=O)n3C)cc1 [8-(p-methoxyphenyl)T] | 1.5 |
| Cn1c(=O)c2[nH]c(-c3cccc(Br)c3)nc2n(C)c1=O [8-(m-bromophenyl)T] | 10 |
| C=CCn1c(=O)c2[nH]c(-c3ccc(Cl)cc3N)nc2n(C)c1=O [1-allyl-3-methyl-8-(2-amino-4-chlorophenyl)X] | 2 |
| CC(C)c1ccc(-c2nc3c([nH]2)c(=O)n(C)c(=O)n3C)cc1 [8-(p-isopropylphenyl)T] | 2.5 |
| Cc1cccc(-c2nc3c([nH]2)c(=O)n(C)c(=O)n3C)c1 [8-(m-methylphenyl)T] | 13 |
| CCn1c(=O)c2[nH]c(-c3ccc(Br)cc3)nc2n(CC)c1=O [1,3-diethyl-8-(p-bromophenyl)X] | 1 |

| SMILES | IC50 [nM] |
| --- | --- |
| Cn1c(=O)c2[nH]c(-c3ccncc3)nc2n(C)c1=O [8-(4-pyridyl)T] | 35 |
| Cn1c(=O)c2[nH]c(-c3ccccc3[N+](=O)[O-])nc2n(C)c1=O [8-(o-nitrophenyl)T] | 80 |
| COc1cc(OC)cc(-c2nc3c([nH]2)c(=O)n(C)c(=O)n3C)c1 [8-(3,5-dimethoxyphenyl)T] | 500 |
| COc1cccc(-c2nc3c([nH]2)c(=O)n(C)c(=O)n3C)c1 [8-(m-methoxyphenyl)T] | 20 |
| Cn1c(=O)c2[nH]c(-c3cccc(F)c3)nc2n(C)c1=O [8-(m-fluorophenyl)T] | 4 |
| C=CCn1c(=O)c2[nH]c(-c3ccc(Cl)cc3N)nc2n(CC=C)c1=O [1,3-diallyl-8-(2-amino-4-chlorophenyl)X, 1,3-diallyl-8-(2-amino-4-chlorophenyl)xanthine] | 0.8 |
| Cn1c(=O)c2[nH]c(-c3ccoc3)nc2n(C)c1=O [8-(3-furyl)T] | 4 |
| CCOc1ccc(-c2nc3c([nH]2)c(=O)n(C)c(=O)n3C)cc1 [8-(p-ethoxyphenyl)T] | 2 |
| Cn1c(=O)c2[nH]c([N+](=O)[O-])nc2n(C)c1=O [8-nitroT] | 3500 |
| Cn1c(=O)c2[nH]c(-c3cccc(O)c3)nc2n(C)c1=O [8-(m-hydroxyphenyl)T] | 6 |
| CCCCOc1ccc(-c2nc3c([nH]2)c(=O)n(C)c(=O)n3C)cc1 [8-(p-butoxyphenyl)T] | 4 |
| Cn1c(=O)c2[nH]c(-c3ccc(-c4ccccc4)cc3)nc2n(C)c1=O [8-(p-phenylphenyl)T] | 3.5 |
| COc1ccc(-c2nc3c([nH]2)c(=O)n(C)c(=O)n3C)c(OC)c1 [8-(2,4-dimethoxyphenyl)T] | 200 |
| Cc1ccc(-c2nc3c([nH]2)c(=O)n(C)c(=O)n3C)c(N)c1 [8-(2-amino-4-methylphenyl)T] | 10 |
| Cn1c(=O)c2[nH]c(-c3ccc(I)cc3)nc2n(C)c1=O [8-(p-iodophenyl)T] | 1.3 |
| CCc1ccc(-c2nc3c([nH]2)c(=O)n(C)c(=O)n3C)cc1 [8-(p-ethylphenyl)T] | 0.8 |
| COc1ccccc1-c1nc2c([nH]1)c(=O)n(C)c(=O)n2C [8-(o-methoxyphenyl)T] | 350 |
| Cn1c(=O)[nH]c2nc(-c3ccccc3)[nH]c2c1=O [1-methyl-8-phenylX] | 2.5 |
| CN(C)c1cccc(-c2nc3c([nH]2)c(=O)n(C)c(=O)n3C)c1 [8-(m-dimethylaminophenyl)T] | 80 |

same assay, conditions: bovine brain

| SMILES | adenosine receptor blocking activity (in words) | times more potent than theophylline |
| --- | --- | --- |
| CCCn1c(=O)c2[nH]c(-c3ccccc3)nc2n(CCC)c1=O [B255, 1,3-Dipropyl-8-Phenylxanthine] | significantly lower | about 10,000 times |
| C=CCn1c(=O)c2[nH]c(-c3ccc(Cl)cc3N)nc2n(CC=C)c1=O [1,3-diallyl-8-(2-amino-4-chlorophenyl)X, 1,3-diallyl-8-(2-amino-4-chlorophenyl)xanthine] | useful activity as an adenosine receptor antagonist |  |
